Source: patent US9896440B2, “Aryl substituted heterocyclyl sulfones” (GRÜNENTHAL GMBH, priority 2014, dated 2018)

Target: T1, Human CaV2.2 channels (Homo sapiens, UniProt Q00975)
T1 construct: expressed in transfected cells; Kir2.3 also stably co-expressed
Test: Fluorescence assay for CaV2.2 channels using potassium depolarization to induce channel opening (FLIPR, Fluo 4)
Assay type: cell-based
Conditions: 3 μM test compound, 30 mM KCl assay buffer (inactivated channel state), HEK293 cells
Description: In the process, the Ca^2+ influx is quantified in the FLIPR assay with the aid of a Ca^2+-sensitive dye (type Fluo-4, Molecular Probes Europe BV, Leiden, the Netherlands) in a fluorescent imaging plate reader (FLIPR 3, Molecular Devices, Sunnyvale, USA), as described hereinafter.
Human CaV2.2 channels were stably expressed in HEK293 cells together with alpha2-delta and beta subunits of voltage gated calcium channels. In addition, an inwardly rectifying potassium channel (Kir2.3) was stably expressed in these cells to augment control of the cell membrane potential by the concentration of extracellular potassium ions. Raise of the extracellular potassium concentration leads to depolarization of the membrane potential and thus regulates the voltage dependent state of CaV2.2 channels. For preparation, cells were seeded in black poly-D-lysine coated 96-well plates (Becton Dickinson, Biocoat 4640) in 100 μL medium [500 mL DMEM/F-12 plus Glutamax (Invitrogen 31331-093) plus 5.5 mL MEM NEAA 100× (Invitrogen 11140-035) plus 50 mL FBS decomplemented (Invitrogen 10270-106) plus 200 μg/mL Geneticin (Invitrogen 10131-027) plus 50 μg/mL Hygromycin B (Invitrogen 10687-010) plus 2 μg/mL Blasticidin (anti-bl5b Invivo-Gen) plus 0.2 μg/mL Puromycin (A 11138-03)] at a cell density of 30.000 cells per well. Plates were incubated at 37° C. (5% CO2) for 20 to 23 h. On the day of experiment medium was discarded and cells were loaded with Fluo 4 by addition of 100 μL of basic assay buffer (10 mM HEPES, 1 mM KCl, 149 mM NaCl, 0.8 mM CaCl2, 1.7 mM MgCl2, 10 mM Glucose, 0.1% BSA. pH 7.4) containing 2 μM Fluo 4 (Molecular Probes; F-14201), 0.01% pluronic acid (Molecular Probes; P-6866) and 2.5 mM probenecid (Molecular Probes; P36400). Cells were incubated in the dark at 25° C. for 60 min. Then dye containing buffer was discarded and 100 μL basic (1 mM KCl) or alternative (30 mM KCl) assay buffer was added. The alternative assay buffer contained altered concentrations of KCl (30 mM) and NaCl (120 mM) and was used in order to promote the inactivated channel state. After that 25 μL of basic or alternative assay buffer with or without test compound were added and cells were incubated again in the dark at 25° C. for 15 min. Fluorescence intensity was measured on a FLIPR 3 instrument (Molecular Devices Corp., Sunnyvale, Calif.) with excitation at 480 nm and emission at 535 nm. After continuously reading fluorescence for 30 sec, 50 μL of basic assay buffer containing 210 mM KCl (NaCl omitted) were added for depolarization. Peak fluorescent signal intensity was determined and the amplitude of the peak signal, normalized to base line, was used to measure channel inhibition by test compounds.

T1 sequence (Q00975 whole entry): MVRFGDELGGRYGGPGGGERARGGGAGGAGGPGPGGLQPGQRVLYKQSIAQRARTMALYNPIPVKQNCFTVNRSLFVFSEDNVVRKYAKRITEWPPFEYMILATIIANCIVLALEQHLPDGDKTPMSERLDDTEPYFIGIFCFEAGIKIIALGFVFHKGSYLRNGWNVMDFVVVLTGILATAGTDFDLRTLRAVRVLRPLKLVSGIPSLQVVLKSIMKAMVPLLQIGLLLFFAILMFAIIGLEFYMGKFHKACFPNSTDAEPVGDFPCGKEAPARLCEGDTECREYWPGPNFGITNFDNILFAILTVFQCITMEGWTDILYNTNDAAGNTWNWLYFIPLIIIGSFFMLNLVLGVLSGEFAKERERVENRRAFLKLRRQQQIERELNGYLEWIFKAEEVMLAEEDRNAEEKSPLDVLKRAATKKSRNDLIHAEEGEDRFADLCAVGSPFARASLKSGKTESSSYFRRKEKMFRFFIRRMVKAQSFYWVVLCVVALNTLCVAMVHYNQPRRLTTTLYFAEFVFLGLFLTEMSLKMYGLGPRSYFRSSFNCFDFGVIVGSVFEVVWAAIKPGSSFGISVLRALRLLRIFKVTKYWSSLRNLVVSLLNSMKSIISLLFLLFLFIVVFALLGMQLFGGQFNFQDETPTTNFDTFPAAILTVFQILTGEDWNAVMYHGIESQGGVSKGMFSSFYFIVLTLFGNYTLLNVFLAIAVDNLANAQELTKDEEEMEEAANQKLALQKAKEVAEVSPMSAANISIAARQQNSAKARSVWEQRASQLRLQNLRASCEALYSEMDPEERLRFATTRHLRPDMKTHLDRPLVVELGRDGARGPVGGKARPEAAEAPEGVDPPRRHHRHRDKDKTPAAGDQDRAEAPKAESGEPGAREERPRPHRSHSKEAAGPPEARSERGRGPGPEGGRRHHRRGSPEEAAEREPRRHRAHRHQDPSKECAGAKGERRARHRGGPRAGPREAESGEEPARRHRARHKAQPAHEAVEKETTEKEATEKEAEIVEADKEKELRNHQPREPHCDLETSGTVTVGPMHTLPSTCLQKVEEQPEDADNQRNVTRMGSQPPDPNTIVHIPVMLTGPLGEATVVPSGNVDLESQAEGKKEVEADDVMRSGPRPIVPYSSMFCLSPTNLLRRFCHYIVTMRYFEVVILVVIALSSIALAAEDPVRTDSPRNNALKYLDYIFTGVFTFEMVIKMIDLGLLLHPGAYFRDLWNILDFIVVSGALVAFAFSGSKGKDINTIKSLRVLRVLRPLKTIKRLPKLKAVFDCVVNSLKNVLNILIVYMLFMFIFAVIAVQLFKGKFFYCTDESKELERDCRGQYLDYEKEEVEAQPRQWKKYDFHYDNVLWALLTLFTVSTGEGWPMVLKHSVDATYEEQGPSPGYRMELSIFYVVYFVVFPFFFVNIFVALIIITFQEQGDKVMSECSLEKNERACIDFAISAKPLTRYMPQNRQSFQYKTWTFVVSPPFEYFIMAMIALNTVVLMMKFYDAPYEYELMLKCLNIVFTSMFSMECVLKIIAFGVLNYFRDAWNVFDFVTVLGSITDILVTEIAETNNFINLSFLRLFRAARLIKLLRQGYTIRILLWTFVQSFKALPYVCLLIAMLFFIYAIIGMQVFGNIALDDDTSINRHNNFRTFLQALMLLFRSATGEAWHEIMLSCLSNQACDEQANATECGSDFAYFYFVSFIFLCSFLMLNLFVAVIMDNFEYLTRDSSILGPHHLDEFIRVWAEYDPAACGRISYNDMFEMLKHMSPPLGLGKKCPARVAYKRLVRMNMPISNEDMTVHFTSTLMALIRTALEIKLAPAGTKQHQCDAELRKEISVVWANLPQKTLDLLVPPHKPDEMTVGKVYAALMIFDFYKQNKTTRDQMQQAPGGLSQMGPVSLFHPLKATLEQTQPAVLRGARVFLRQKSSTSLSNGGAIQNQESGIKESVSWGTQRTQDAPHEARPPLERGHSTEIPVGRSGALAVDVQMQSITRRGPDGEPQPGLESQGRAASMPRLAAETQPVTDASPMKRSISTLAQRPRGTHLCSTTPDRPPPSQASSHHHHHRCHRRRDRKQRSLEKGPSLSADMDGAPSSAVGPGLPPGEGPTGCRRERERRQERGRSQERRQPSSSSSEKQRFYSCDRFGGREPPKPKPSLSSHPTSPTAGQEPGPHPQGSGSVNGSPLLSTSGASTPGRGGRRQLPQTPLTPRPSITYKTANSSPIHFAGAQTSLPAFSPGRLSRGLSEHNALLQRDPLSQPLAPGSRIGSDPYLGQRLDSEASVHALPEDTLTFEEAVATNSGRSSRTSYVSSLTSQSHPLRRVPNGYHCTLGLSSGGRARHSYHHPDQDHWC

Structure (SMILES) | Activity Category: %-Inhib (CaV2.2) @3 μM @30 mM KCl
CC1(S(=O)(=O)c2cccc(C(F)(F)F)c2)CCOC(COc2ccc(S(C)(=O)=O)c(F)c2)C1 (single isomer, unassigned) [SC-151, 2-[(3-Fluoro-4-methylsulfonyl-phenoxy)-methyl]-4-methyl-4-[[3-(trifluoromethyl)phenyl]sulfonyl]-tetrahydro-pyran] | A (%-Inhibition >95%)
CC1(S(=O)(=O)c2cccc(C(F)(F)F)c2)COC(c2ccc(Cl)cc2)C1 (stereo not drawn) [SC-101, 2-(4-Chlorophenyl)-4-methyl-4-[[3-(trifluoromethyl)phenyl]sulfonyl]-tetrahydro-furan] | A (%-Inhibition >95%)
CC1(S(=O)(=O)c2cccc(C(F)(F)F)c2)COC(c2ccc(Cl)cc2)C1 (stereo not drawn) [SC-102, 2-(4-Chlorophenyl)-4-methyl-4-[[3-(trifluoromethyl)phenyl]sulfonyl]-tetrahydro-furan] | B (%-Inhibition >75% up to ≦95%)
CC1(S(=O)(=O)c2cccc(C(F)(F)F)c2)COC(c2ccc(Cl)cc2)C1 (stereo not drawn) [SC-103, 2-(4-Chlorophenyl)-4-methyl-4-[[3-(trifluoromethyl)phenyl]sulfonyl]-tetrahydro-furan] | A (%-Inhibition >95%)
CC1(S(=O)(=O)c2cccc(C(F)(F)F)n2)CCOC(c2ccc(Cl)cc2)C1 (stereo not drawn) [SC-105, 2-[[2-(4-Chlorophenyl)-4-methyl-tetrahydro-pyran-4-yl]sulfonyl]-6-(trifluoromethyl)-pyridine] | A (%-Inhibition >95%)
CC1(S(=O)(=O)c2cccc(C(F)(F)F)n2)CCOC(c2ccc(Cl)cc2)C1 (stereo not drawn) [SC-106, 2-[[2-(4-Chlorophenyl)-4-methyl-tetrahydro-pyran-4-yl]sulfonyl]-6-(trifluoromethyl)-pyridine] | B (%-Inhibition >75% up to ≦95%)
CC1(S(=O)(=O)c2cccc(C(F)(F)F)n2)CCOC(c2ccc(Cl)cc2)C1 (stereo not drawn) [SC-107, 2-[[2-(4-Chlorophenyl)-4-methyl-tetrahydro-pyran-4-yl]sulfonyl]-6-(trifluoromethyl)-pyridine] | B (%-Inhibition >75% up to ≦95%)
CCc1ccc(C(F)(F)F)cc1S(=O)(=O)C1CCOC(c2ccc(Cl)cc2)C1 (stereo not drawn) [SC-110, 2-(4-Chlorophenyl)-4-[[2-ethyl-5-(trifluoromethyl)-phenyl]sulfonyl]-tetrahydro-pyran] | B (%-Inhibition >75% up to ≦95%)
CCc1ccc(C(F)(F)F)cc1S(=O)(=O)C1CCOC(c2ccc(Cl)cc2)C1 (stereo not drawn) [SC-111, 2-(4-Chlorophenyl)-4-[[2-ethyl-5-(trifluoromethyl)-phenyl]sulfonyl]-tetrahydro-pyran] | C (%-Inhibition >40% up to ≦75%)
CC1(S(=O)(=O)c2cccc(C(F)(F)F)c2)CCOC(c2ccc(S(C)(=O)=O)cc2)C1 (stereo not drawn) [SC-113, 4-Methyl-2-(4-methylsulfonyl-phenyl)-4-[[3-(trifluoromethyl)phenyl]sulfonyl]-tetrahydro-pyran] | B (%-Inhibition >75% up to ≦95%)
CC1(S(=O)(=O)c2cccc(C(F)(F)F)c2)CCOC(c2ccc(Cl)cc2S(C)(=O)=O)C1 (stereo not drawn) [SC-115, 2-(4-Chloro-2-methylsulfonyl-phenyl)-4-methyl-4-[[3-(trifluoromethyl)phenyl]sulfonyl]-tetrahydro-pyran] | A (%-Inhibition >95%)
CC1(c2ccc(Cl)cc2)CC(S(=O)(=O)c2cccc(C(F)(F)F)c2)CCO1 (stereo not drawn) [SC-141, 2-(4-Chlorophenyl)-2-methyl-4-[[3-(trifluoromethyl)phenyl]sulfonyl]-tetrahydro-pyran] | A (%-Inhibition >95%)
CC1(S(=O)(=O)c2cccc(C(F)(F)F)c2)CCOC(c2ccc(S(C)(=O)=O)c(F)c2)C1 (stereo not drawn) [SC-144, 2-(3-Fluoro-4-methylsulfonyl-phenyl)-4-methyl-4-[[3-(trifluoromethyl)phenyl]sulfonyl]-tetrahydro-pyran] | A (%-Inhibition >95%)
CC1(S(=O)(=O)c2cccc(C(F)(F)F)c2)CCOC(c2cc(F)ccc2S(C)(=O)=O)C1 (stereo not drawn) [SC-204, 2-(5-Fluoro-2-methylsulfonyl-phenyl)-4-methyl-4-[[3-(trifluoromethyl)phenyl]sulfonyl]-tetrahydro-pyran] | A (%-Inhibition >95%)

Same assay, conditions: HEK293, 3 μM test compound, 30 mM KCl assay buffer (inactivated channel state), HEK293 cells; read-out: Activity Category: %-Inhib (CaV2.2) @3 μM @30 mM KCl

Structure (SMILES) | inhibition at 3 µM [%]
CC1(S(=O)(=O)c2cccc(C(F)(F)F)c2)COC(c2ccc(Cl)cc2)C1 (stereo not drawn) [SC-100, 2-(4-Chlorophenyl)-4-methyl-4-[[3-(trifluoromethyl)phenyl]sulfonyl]-tetrahydro-furan] | 75 to 95
CC1(S(=O)(=O)c2cccc(C(F)(F)F)n2)CCOC(c2ccc(Cl)cc2)C1 (stereo not drawn) [SC-104, 2-[[2-(4-Chlorophenyl)-4-methyl-tetrahydro-pyran-4-yl]sulfonyl]-6-(trifluoromethyl)-pyridine] | 75 to 95
Cc1ccc(C(F)(F)F)cc1S(=O)(=O)C1CCOC(c2ccc(Cl)cc2)C1 (stereo not drawn) [SC-108, 2-(4-Chlorophenyl)-4-((2-methyl-5-(trifluoromethyl)phenyl)sulfonyl)tetrahydro-2H-pyran] | 75 to 95
CC1(S(=O)(=O)c2cccc(C(F)(F)F)c2)CCOC(c2ccc(S(C)(=O)=O)cc2)C1 (stereo not drawn) [SC-112, 4-Methyl-2-(4-methylsulfonyl-phenyl)-4-[[3-(trifluoromethyl)phenyl]sulfonyl]-tetrahydro-pyran] | > 95
CC1(S(=O)(=O)c2cccc(C(F)(F)F)c2)CCOC(c2ccc(Cl)cc2S(C)(=O)=O)C1 (stereo not drawn) [SC-114, 2-(4-Chloro-2-methylsulfonyl-phenyl)-4-methyl-4-[[3-(trifluoromethyl)phenyl]sulfonyl]-tetrahydro-pyran] | 75 to 95
CC(C)c1ccc(C(F)(F)F)cc1S(=O)(=O)C1CCOC(c2ccc(Cl)cc2)C1 (stereo not drawn) [SC-118, 2-(4-Chlorophenyl)-4-[[2-isopropyl-5-(trifluoromethyl)-phenyl]sulfonyl]-tetrahydro-pyran] | 40 to 75
CC1(S(=O)(=O)c2cccc(C(F)(F)F)c2)CCOCC1c1ccc(Cl)cc1 (stereo not drawn) [SC-120, 3-(4-Chlorophenyl)-4-methyl-4-[[3-(trifluoromethyl)phenyl]sulfonyl]-tetrahydro-pyran] | 75 to 95
CC1(c2ccc(Cl)cc2)CC(S(=O)(=O)c2cccc(C(F)(F)F)c2)CCO1 (stereo not drawn) [SC-140, 2-(4-Chlorophenyl)-2-methyl-4-[[3-(trifluoromethyl)phenyl]sulfonyl]-tetrahydro-pyran] | 75 to 95
Cc1ccc(S(C)(=O)=O)cc1C1CC(C)(S(=O)(=O)c2cccc(C(F)(F)F)c2)CCO1 (stereo not drawn) [SC-200, 4-Methyl-2-(2-methyl-5-methylsulfonyl-phenyl)-4-[[3-(trifluoromethyl)phenyl]sulfonyl]-tetrahydro-pyran] | 75 to 95
CC1(S(=O)(=O)c2cccc(C(F)(F)F)c2)CCOC(c2cc(C(F)(F)F)cc(S(C)(=O)=O)c2)C1 (stereo not drawn) [SC-202, 4-Methyl-2-[3-methylsulfonyl-5-(trifluoromethyl)-phenyl]-4-[[3-(trifluoromethyl)phenyl]sulfonyl]-tetrahydro-pyran] | > 95
CC1(S(=O)(=O)c2cccc(C(F)(F)F)c2)CCOC(c2cc(F)ccc2S(C)(=O)=O)C1 (stereo not drawn) [SC-205, 2-(5-Fluoro-2-methylsulfonyl-phenyl)-4-methyl-4-[[3-(trifluoromethyl)phenyl]sulfonyl]-tetrahydro-pyran] | 75 to 95
Cc1cc(C2CC(C)(S(=O)(=O)c3cccc(C(F)(F)F)c3)CCO2)ccc1S(C)(=O)=O (stereo not drawn) [SC-206, 4-Methyl-2-(3-methyl-4-methylsulfonyl-phenyl)-4-[[3-(trifluoromethyl)phenyl]sulfonyl]-tetrahydro-pyran] | > 95
CC1(S(=O)(=O)c2cccc(C(F)(F)F)c2)CCOC(c2ccc(S(C)(=O)=O)c(F)c2)C1 (stereo not drawn) [SC-208, 2-(3-Fluoro-4-methylsulfonyl-phenyl)-4-methyl-4-[[3-(trifluoromethyl)phenyl]sulfonyl]-tetrahydro-pyran] | > 95
